In article PMC9177823 (Journal of molecular biology, 2022):

Target: MelBSt; Salmonella typhimurium melibiose permease (Salmonella enterica, UniProt P30878)
Experiment: CD thermal denaturation at […] nm, purified in DDM
Assay type: binding
Conditions: 50 mM melibiose, 100 mM LiCl, 20 mM NaPi pH 7.5, 10% glycerol, 0.01% DDM

MelBSt; Salmonella typhimurium melibiose permease, sequence (P30878 whole entry): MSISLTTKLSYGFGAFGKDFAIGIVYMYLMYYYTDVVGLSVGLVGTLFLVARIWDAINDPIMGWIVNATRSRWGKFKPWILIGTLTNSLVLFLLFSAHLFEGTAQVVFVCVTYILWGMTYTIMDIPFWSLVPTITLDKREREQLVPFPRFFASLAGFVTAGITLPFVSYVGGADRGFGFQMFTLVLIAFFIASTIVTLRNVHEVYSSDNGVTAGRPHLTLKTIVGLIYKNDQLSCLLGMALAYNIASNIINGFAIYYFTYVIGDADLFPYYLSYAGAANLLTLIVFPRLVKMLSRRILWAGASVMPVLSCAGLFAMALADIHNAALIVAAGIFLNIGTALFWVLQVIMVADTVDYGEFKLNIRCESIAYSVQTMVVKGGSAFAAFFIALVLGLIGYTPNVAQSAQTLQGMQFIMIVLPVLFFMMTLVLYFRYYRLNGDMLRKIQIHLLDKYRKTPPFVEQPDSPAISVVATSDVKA

OC[C@H]1O[C@H](OC[C@H]2OC(O)[C@H](O)[C@@H](O)[C@@H]2O)[C@H](O)[C@@H](O)[C@H]1O (stereo partly shown) [melibiose]
WT: 63.87 ± 0.04 °C
